In assay [1] the target is DNA (cytosine-5)-methyltransferase 3A (Mus musculus) (UniProt O88508). In words: Inhibition of murine DNMT3A catalytic domain-mediated DNA methylation using 5'-6FAM-tagged 30-mer duplex DNA (17 AT bp) as substrate at 60 uM preincubated for 30 mins followed by enzyme addition relative to control.
Assay [2] deals with T1, DNA (cytosine-5)-methyltransferase 3A (Mus musculus, UniProt O88508). The experiment in a line: Inhibition of murine DNMT3A catalytic domain-mediated DNA methylation using 5'-6FAM-tagged 30-mer duplex DNA (17 AT bp) as substrate preincubated for 30 mins followed by enzyme addition.
In assay [3] the target is T1, DNA (cytosine-5)-methyltransferase 3A. In words: Inhibition of murine DNMT3A catalytic domain-mediated DNA methylation using 5'-6FAM-tagged 30-mer duplex DNA (22 AT bp) as substrate preincubated for 30 mins followed by enzyme addition.
The target in assay [4] is DNA (cytosine-5)-methyltransferase 3A (Mus musculus) (UniProt O88508). In words: Binding affinity to murine DNMT3A catalytic domain assessed as fold reduction in compound fluorescence at 5 uM by dialysis method relative to control.
In assay [5] the target is DNA. In words: Binding affinity to 5'-6FAM-tagged 30-mer duplex DNA (17 AT bp) (unknown origin) assessed as dissociation constant for complound-DNA complex by fluorescence polarization assay. Type of assay: nucleic-acid assay. For orientation: Polarisation of emitted light reports the rotation of a fluorescent probe.
In assay [6] the target is DNA (cytosine-5)-methyltransferase 3A (Mus musculus) (UniProt O88508). In words: Inhibition of murine DNMT3A catalytic domain-mediated DNA methylation using 5'-6FAM-tagged 30-mer duplex DNA (22 AT bp) as substrate at 60 uM preincubated for 30 mins followed by enzyme addition relative to control.
In assay [7] the target is DNA. In words: Binding affinity to 5'-6FAM-tagged 30-mer duplex DNA (22 AT bp) (unknown origin) assessed as dissociation constant for complound-DNA complex by fluorescence polarization assay. Type of assay: nucleic-acid assay.
Assay [8] concerns the target DNA (cytosine-5)-methyltransferase 3A (Homo sapiens, UniProt Q9Y6K1). The experiment in a line: Binding affinity to DNMT3A catalytic domain (unknown origin) assessed as inhibition of enzyme-mediated DNA methylation preincubated for 1 hr followed by enzyme addition measured after 1 hr in presence of AdoMet by PAGE analysis.

The text below walks through data of ChEMBL document CHEMBL4622935, “Novel anticancer drug curaxin CBL0137 impairs DNA methylation by eukaryotic DNA methyltransferase Dnmt3a” (Bioorg Med Chem Lett, 2020).

DNA (cytosine-5)-methyltransferase 3A (Homo sapiens, UniProt Q9Y6K1), sequence (Q9Y6K1 whole entry, looked up, the tested form may be a part): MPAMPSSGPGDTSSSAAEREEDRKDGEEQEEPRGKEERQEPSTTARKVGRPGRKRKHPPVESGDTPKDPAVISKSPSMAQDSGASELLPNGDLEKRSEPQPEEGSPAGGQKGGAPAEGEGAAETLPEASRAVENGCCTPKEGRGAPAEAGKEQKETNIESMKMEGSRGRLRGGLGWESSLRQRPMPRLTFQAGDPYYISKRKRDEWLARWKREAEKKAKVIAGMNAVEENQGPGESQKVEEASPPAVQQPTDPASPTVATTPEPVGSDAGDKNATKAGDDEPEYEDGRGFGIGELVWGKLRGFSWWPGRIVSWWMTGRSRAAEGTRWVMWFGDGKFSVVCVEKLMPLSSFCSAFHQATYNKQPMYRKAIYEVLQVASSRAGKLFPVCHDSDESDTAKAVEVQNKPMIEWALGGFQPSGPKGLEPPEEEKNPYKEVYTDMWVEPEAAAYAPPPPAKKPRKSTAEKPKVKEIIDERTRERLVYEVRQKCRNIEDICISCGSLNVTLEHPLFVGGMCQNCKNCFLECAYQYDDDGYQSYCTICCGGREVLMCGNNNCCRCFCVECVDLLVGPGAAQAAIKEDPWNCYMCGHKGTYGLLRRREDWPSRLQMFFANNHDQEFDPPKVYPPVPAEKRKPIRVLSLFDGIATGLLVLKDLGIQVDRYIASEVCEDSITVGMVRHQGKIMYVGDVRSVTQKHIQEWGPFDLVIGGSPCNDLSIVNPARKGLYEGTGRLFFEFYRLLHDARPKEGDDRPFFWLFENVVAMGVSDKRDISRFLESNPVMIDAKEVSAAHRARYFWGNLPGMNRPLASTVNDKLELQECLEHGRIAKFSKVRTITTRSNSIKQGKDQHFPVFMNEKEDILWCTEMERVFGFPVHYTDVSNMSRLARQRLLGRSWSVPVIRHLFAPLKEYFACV

The term inhibition denotes the drop in the measured response relative to a control, in per cent. As usually defined, the IC50 is the concentration that gives 50% inhibition. Turning to `COc1cccc2c1C(=O)c1c(O)c3c(c(O)c1C2=O)C[C@@](O)(C(=O)CO)C[C@@H]3O[C@H]1C[C@H](N)[C@H](O)[C@H](C)O1` [DOXORUBICIN], the inhibition in assay [1] amounted to 70%. The compound further registered an IC50 in assay [2] of 3 µM.
As a reminder, the Kd is the constant that tells how readily two partners part at equilibrium. Regarding `CC(=O)c1ccc2c(c1)c1cc(C(C)=O)ccc1n2CCNC(C)C`, the half-inhibitory concentration (IC50) in assay [3] worked out at 5 µM; in assay [2], 9 µM. Moreover, the fold change (FC) in assay [4] turned out to be 20. The Kd at DNA [5] is 20 µM; on DNA [7] it was 34 µM. Further, the inhibition in assay [1] is 80%; in assay [6], 51%.
Consider `CCC1/C=C/C=C/C[C@H](C)[C@@H](O)[C@](C)(O)C(=O)[C@@H](C)[C@H](O)[C@@H](C)C(=O)[C@H](C)[C@@H](O)[C@H](C)/C=C/C(=O)OC2[C@@H](C)C(CC1)OC1(CC[C@@H](C)C(C[C@H](C)O)O1)[C@@H]2C` (stereo not given in full), for which, in assay [8], the IC50 is 6 µM.
